{"source": "patent US20050221317A1", "about": "“Use of an epitope of vascular endothelial growth factor receptor kdr/flk-1” (AstraZeneca AB, priority 2002, published 2005)", "molecular_target": "T1, KDR/Flk-1 receptor epitope Y1214 (Homo sapiens, UniProt P35968)", "T1 construct": "host or cells: HUVEC (human umbilical vein endothelial cells)", "T1 sequence (P35968 20-1356)": "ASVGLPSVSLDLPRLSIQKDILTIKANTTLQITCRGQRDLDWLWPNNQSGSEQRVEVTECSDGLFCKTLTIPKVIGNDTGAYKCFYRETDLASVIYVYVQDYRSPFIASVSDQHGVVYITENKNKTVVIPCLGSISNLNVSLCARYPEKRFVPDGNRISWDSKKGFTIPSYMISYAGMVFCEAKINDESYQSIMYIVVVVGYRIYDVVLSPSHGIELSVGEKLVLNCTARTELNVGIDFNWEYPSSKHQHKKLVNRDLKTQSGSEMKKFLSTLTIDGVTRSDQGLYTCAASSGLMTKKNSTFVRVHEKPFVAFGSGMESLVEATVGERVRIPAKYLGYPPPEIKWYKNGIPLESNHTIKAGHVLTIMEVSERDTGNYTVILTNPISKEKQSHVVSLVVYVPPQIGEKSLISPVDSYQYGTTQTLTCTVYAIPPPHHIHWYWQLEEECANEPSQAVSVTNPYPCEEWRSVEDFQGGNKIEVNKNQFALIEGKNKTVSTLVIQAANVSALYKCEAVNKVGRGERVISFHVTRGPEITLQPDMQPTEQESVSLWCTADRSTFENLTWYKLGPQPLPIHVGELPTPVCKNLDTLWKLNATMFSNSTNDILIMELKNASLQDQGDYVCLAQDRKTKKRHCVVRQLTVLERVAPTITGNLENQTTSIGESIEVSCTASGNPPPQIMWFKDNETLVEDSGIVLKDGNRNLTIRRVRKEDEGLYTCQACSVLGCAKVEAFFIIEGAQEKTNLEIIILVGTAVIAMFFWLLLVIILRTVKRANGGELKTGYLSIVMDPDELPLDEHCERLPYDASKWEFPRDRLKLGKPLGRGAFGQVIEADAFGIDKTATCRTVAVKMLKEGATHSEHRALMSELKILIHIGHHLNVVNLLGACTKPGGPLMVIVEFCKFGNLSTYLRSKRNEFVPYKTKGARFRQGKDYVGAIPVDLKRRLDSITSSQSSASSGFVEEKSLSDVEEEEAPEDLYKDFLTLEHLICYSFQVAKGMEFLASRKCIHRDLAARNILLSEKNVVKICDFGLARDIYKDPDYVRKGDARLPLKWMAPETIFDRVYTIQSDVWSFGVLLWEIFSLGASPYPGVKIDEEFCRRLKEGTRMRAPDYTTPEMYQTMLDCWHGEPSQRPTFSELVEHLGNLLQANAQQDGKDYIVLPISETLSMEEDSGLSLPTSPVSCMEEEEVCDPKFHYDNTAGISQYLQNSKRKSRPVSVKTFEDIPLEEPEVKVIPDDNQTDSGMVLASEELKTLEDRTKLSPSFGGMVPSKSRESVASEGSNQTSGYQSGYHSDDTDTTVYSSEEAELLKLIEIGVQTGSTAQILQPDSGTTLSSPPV", "experiment": "Phosphorylation of the Y1214 epitope of KDR/Flk-1 in VEGF-treated HUVECs (Western blot with anti-Y1214 antibody)", "type": "cell-based", "details": "VEGF-treated HUVEC cell lysate, 0.007-5.0 uM compound, FIG. 1", "experimental": "HUVECs were obtained from TCS Cellworks, Buckingham, UK (Catalogue number ZHS 8965) and cultured in Large Vessel Endothelial Cell Basal Medium+recommended 5 supplements obtained from TCS Cellworks (catalogue numbers ZHM 2951 and ZHS 8965). Cells were used when close to confluence in 3×75 cm^2 tissue culture flasks. Prior to treatment with inhibitor cells were cultured overnight in Basal Medium without supplements.\nHUVECS were treated with inhibitors as follows. […] After 82 minutes 50 ng/ml VEGF was added to the cells and the cells incubated for a further 8 minutes at 37° C. After this further incubation the culture medium was removed from the cells and the cells lysed with 2.5 ml sample buffer [Sample buffer: 4 parts NuPage sample buffer (Novex, NP0007, Invitrogen, Paisley, Scotland) to 1 part distilled water]. The lysate was collected, 3 μl of β-mercaptoethanol added and heated to 95° C. for 10 minutes to ensure complete reduction and denaturation. The lysates can be stored at −20° C. until analysed.\nLysates were analysed using SDS polyacrylamide gel electrophoresis (PAGE) to separate the proteins within the lysates. […]\nNitrocellulose membranes were incubated for 1 hour in 5% solution of dried, skimmed milk powder in PBST [Marvel/PBST] at room temperature. […] The light from this is detected by photographic film, for example Kodak Biomax ML.", "data": [{"smiles": "COc1cc2c(Oc3ccc4[nH]c(C)cc4c3F)ncnc2cc1OCCCN1CCCCC1", "note": "[4[(4-fluoro-2-methyl-1H-indol-5-yl)oxy]-6-methoxy-7-(3-piperidin-1-ylpropoxy)quinazoline]", "values": [{"measurement": "phosphorylation of the Y1214 epitope", "result": "dose dependent decrease in phosporylation"}]}]}
